Assay results reported in patent US20200056157A1, “LIVER ORGANOID DISEASE MODELS AND METHODS OF MAKING AND USING SAME” (Children's Hospital Medical Center, priority 2016, published 2020).

Legend:
[1] = system: human iPSC-liver organoid; experiment: Albumin ELISA of organoid culture supernatant; format: cell-based; conditions: 4 days RA; supernatant collected in 24 hrs
Method: (§1) Albumin, IL-6, and P3NP ELISA. To measure albumin secretion level of HLO, 200 μL of culture supernatant was collected from HLO embedded in Matrigel. For IL-6 and P3NP, 20-30 organoids were seeded and cultured on an ultra-low attachment multiwell plates 96 well plate (Corning). To define the exact number of organoids in each well and lastly normalize the secreted level for IL-6 and P3NP by the number, the organoids were captured on The KEYENCE BZ-X710 Fluorescence Microscope. The culture supernatants were collected at 24 hrs (for albumin), 96 hrs (for IL-6) and 120 hrs (P3NP) time points after the culture and stored at −80° C. until use. The supernatant was centrifuged at 1,500 rpm for 3 min and to pellet debris, and the resulting supernatant was assayed with Human Albumin ELISA Quantitation Set (Bethyl Laboratories, Inc., TX, USA), Human IL-6 ELISA Kit (Biolegend, CA, USA), and Human N-terminal procollagen III propeptide, PIIINP ELISA Kit (My BioSource, CA, USA) according to the manufacturer's instructions. Significance testing was conducted by Student's t-test.

[2] = system: human iPSC-liver organoid; experiment: RA-based liver organoid differentiation (organoid number, size, luminal structure); format: cell-based; conditions: 4 days RA
Excerpt: To elucidate whether RA signaling has an impact on determining the lineage differentiation towards stromal cells, Applicant established a liver organoid model from human iPSCs by transient induction of RA. Applicant initially differentiated iPSCs to foregut spheroids through definitive endoderm (DE) specification as previously described (Spence et al., 2011). The foregut spheroids were mixed with the attached cells grown in the same well, and the mixture was embedded in Matrigel. […] The number of organoids was increased 1.8-fold in RA treated wells compared to untreated and the size was increased 1.5-fold after RA treatment (FIG. 1, B, C, and D). […] Of note, albumin secretion was maintained more than 40 days after day 20 when albumin was first detected (data not shown).
HLO induction. At day 7, spheroids and attached cells are gently pipetted to be delaminated from dishes. They were centrifuged at 800 rpm for 3 minutes, embedded in a 100% Matrigel drop on the dishes in Advanced DMEM/F12 with B27, N2 and 2 uM retinoic acid (RA; Sigma, MO, USA) after removing supernatant, and cultured for 4 days. After RA treatment, spheroids embedded in the Matrigel drop were cultured in Hepatocytes Culture Medium (HCM; Lonza, MD, USA) with 10 ng/mL hepatocyte growth factor (HGF; PeproTech, NJ, USA), 0.1 uM Dexamethasone (Dex; Sigma) and 20 ng/mL Oncostatin M (OSM; R&D Systems). Cultures for HLO induction were maintained at 37° C. in 5% CO2 with 95% air and the medium was replaced every 2-3 days. To analyze HLO (day 20-30), organoids were isolated from Matrigel by scratching and pipetting.

[3] = system: human liver organoid (HLO); experiment: Lipids live-cell imaging (BODIPY, membrane dye) of FFA treated HLO; format: cell-based; conditions: for effectiveness in inducing lipid accumulation among FFAs (OA, LA, PA, SA): 800 μM, 3 days after FFA exposure, BODIPY
Excerpt: Currently, free fatty acids (FFA) are widely used as an initiating factor to establish an in vitro lipotoxic hepatocyte model; however, fat accumulation is the only phenotype (Kanuri and Bergheim, 2013). […] Given the presence of hepatocyte-, stellate- and Kupffer-like cells with lipid metabolism function-associated genes indicated by global transcriptome analysis, Applicant hypothesized that FFA exposure naturally triggers an inflammation response and resulting fibrotic response in HLO. To test this hypothesis, Applicant treated HLO for 3 to 5 days with FFA. […] To first compare the effect of multiple FFAs including oleic acid (OA, 18:1 n9), linoleic acid (LA, 18:2), palmitic acid (PA, 16:0), and stearic acid (SA, 18:0) on lipids accumulation, live-cell imaging was performed with lipid dye BODIPY at 3 days after the FFA exposure. […] Considering that OA triggers massive lipid accumulation, the concentration of OA was varied (0, 200, 400, and 800 μM) to trigger inflammatory reaction in sHLO. […] In addition to increase in lipid accumulation, the size of lipid droplets was enlarged (FIG. 4, B). Hepatocyte ballooning (enlargement) was one of the pathological grading indicators to determine the nonalcoholic steatohepatitis (NASH) activity (NAS scoring), which was confirmed in 800 μM OA treated sHLO by live imaging of cellular membrane (FIG., 4B). Triglycerides, a main constituent of lipids accumulated in the liver, were also detected in 800 μM treated sHLO, but not in untreated sHLO (FIG. 4, D). […] As FIG. 9 indicates, neither E-cad positive nor negative cells derived spheroids produced P3NP and IL-6 secreted production and overexpressed the gene expression of inflammatory markers.
(§2) Phagocyte, lipids, ROS live-cell imaging. After being cultured in an ultra-low attachment 6 multi-well plate, 5-10 HLO were picked up and seeded in a Microslide 8 Well Glass Bottom plate (Ibidi, WI, USA) and subjected to live-cell staining. The following antibodies were used: pHrodo® Red S. aureus Bioparticles® Conjugate for Phagocyte activity (Thermo Fisher Scientific Inc.), BODIPY® 493/503 for lipids (Thermo Fisher Scientific Inc.), Di-8-ANEPPS for membrane (Thermo Fisher Scientific Inc.), and CellROX green reagent for ROS detection (Thermo Fisher Scientific Inc.). […] The final lipid droplet volume was calculated by IMARIS8 and normalized by each organoid size. Significance testing for lipid droplet volume and ROS production (%) was conducted by Student's t-test.
LPS and FFA exposure and OCA and FGF19 treatment. 20-30 HLO, which had been isolated from Matrigel and washed by 1×PBS, were divided into each condition and cultured on an ultra-low attachment 6 multi-well plates (Corning). HLO were cultured with LPS (Sigma), OA (Sigma), LA (Sigma), SA (Sigma), or PA (Sigma) and collected at day 1 and 3 (for LPS HLO) and at day 3 and 5 (for OA) after the culture. To test the inhibitory effect of OCA (INT-747, MedChem Express, NJ, USA) and human FGF19 recombinant (Sigma) on HLO, 20-30 HLO were cultured in HCM media in the presence or absence of oleic acid (800 μM), and 1 μM OCA and 40 ng/ml FGF19 were added into 800 μM OA condition. HLO were collected at day 3 for lipids live-cell imaging and at day 5 for stiffness measurement.

[4] = system: human liver organoid (HLO); experiment: Masson trichrome stain of HLO; format: cell-based
Method: To further determine whether HLO progresses towards fibrosis-like condition, Applicant performed Masson trichrome stain on sHLO and cHLO. […] Moreover, ELISA of […] was also measured at day 5 of OA exposure. […] secretion was increased 2.8-fold in the culture media of 800 μM OA treated HLO when compared with the untreated (FIG. 4, J).

P3NP = P3NP ELISA of HLO culture supernatant; format: cell-based, human; conditions: 800 μM OA, day 5
Method: as §1

[5] = system: human liver organoid (HLO); experiment: HLO stiffness measurement by AFM; format: cell-based
Excerpt: Applicant's preliminary qualitative analysis of smooth muscle actin immunostaining indicates dose dependent fibrosis progression by OA exposure (FIG. 2, H, I, and J). To gain more quantitative insights in a screenable format, Applicant thus assessed in the living state whether HLO fibrosis could increase the stiffness in a dose dependent fashion using micro-indentation with Atomic Force Microscopy (AFM). […] The Emedian values were 1.2 kPa, 1.6 kPa, 2.4 kPa and 2.8 kPa for 0, 200, 400, and 800 μM OA-treated organoids, respectively. Furthermore, difference between 90th percentile and 10th percentile (ΔP90-10) was 3.2 kPa for untreated organoids and 7.0 kPa for 800 μM OA-treated organoids was observed.
HLO stiffness measurement by AFM. HLOs treated with […] were used for stiffness measurement with a AFM (NanoWizard IV, JPK Instruments, Germany). The AFM head with a silicon nitride cantilever (CSC37, k=0.3 N/m, MikroMasch, Bulgaria) was mounted on a fluorescence stereo microscope (M205 FA, Leica, Germany) coupled with a Z-axis piezo stage (JPK CellHesion module, JPK Instruments, Germany), which allows the indentation measurement up to the depth of ˜100 μm. As a substrate for organoids, a fibronectin-coated dish was used. The tissue culture dish (p=34 mm, TPP Techno Plastic Products, Switzerland) was first incubated with a 1 μg/mL fibronectin solution (Sigma)) at 4° C. for overnight. Then, the tissue culture dish was washed twice by distilled water and dried for 1 hour. Thereafter, HLOs incubated with […] were deposited to the fibronectin-coated dish and incubated for 1 hour at 37° C. The sample dish was then placed onto the AFM stage, and force-distance curves in a 14×14 matrix in a 25×25 μm square were measured from each HLO. Finally, Young's moduli (E, Pa) of HLO were determined by fitting the obtained force-distance curves with the modified Hertz model (Sneddon, 1965). Dunn-Holland-Wolfe test was performed for significance testings.

THP-1 = THP-1 cell migration assay with HLO conditioned media; format: cell-based, human; conditions: OA-treated sHLO conditioned media (400, 800 μM OA), 24 hrs in transwells
Method: THP-1 cell migration assay. THP-1 cell, which was gifted from T. Suzuki, was maintained in Advanced DMEM/F12 (Thermo Fisher Scientific Inc.) containing 10% FBS. THP-1 floating cells were collected, and 200,000 cells were added with serum-free Advanced DMEM/F12 to the membrane chamber of the CytoSelect™ 96-Well Cell Migration Assay (5 μm, Fluorometric Format; Cell Biolabs, CA, USA). 10-20 HLO were cultured in HCM media including 0, 400, 800 uM OA with an ultra-low attachment 96 multi-well plate (Corning) for three days. To define the exact number of organoids in each well and lastly normalize the final migrated cells by the number, the organoids were captured on The KEYENCE BZ-X710 Fluorescence Microscope. 150 μL of culture supernatant of HLO was collected and added to the feeder tray of the kit. The kit was incubated at 37° C. for 24 h in a 5% CO2 cell culture incubator. Cells that had migrated were counted using Countess II FL Automated Cell Counter (Thermo Fisher Scientific Inc.). Significance testing was conducted by Student's t-test.

[6] = system: human liver organoid (HLO); experiment: Triglyceride assay; format: cell-based; conditions: 800 μM OA, 3 days
Method: Triglyceride assay. For quantitative determination of triglycerides, HLO were isolated from one Matrigel drop and divided into HCM media in the presence or absence of oleic acid (800 μM). They were cultured on an ultra-Low attachment 6 multi-well plate for three days. Quantitative estimation of hepatic triglyceride accumulation was performed by an enzymatic assay of triglyceride mass using the EnzyChrom Triglyceride assay kit (Bioassay Systems, CA, USA).

TNF-alpha = experiment: RT-qPCR of pro-inflammatory cytokine TNF-alpha in HLO; format: cell-based, human; conditions: 200 μM or 800 μM OA, normalized by 18S
Method: (§3) RNA isolation, RT-qPCR. RNA was isolated using the RNeasy mini kit (Qiagen, Hilden, Germany). Reverse transcription was carried out using the SuperScriptIII First-Strand Synthesis System for RT-PCR (Invitrogen, CA, USA) according to manufacturer's protocol. qPCR was carried out using TaqMan gene expression master mix (Applied Biosystems) on a QuantStudio 3 Real-Time PCR System (Thermo Fisher Scientific Inc.). All primers and probe information for each target gene was obtained from the Universal ProbeLibrary Assay Design Center (https://qpcr.probefinder.com/organism.jsp). Significance testing was conducted by Student's t-test.

IL-6 = IL-6 ELISA of HLO culture supernatant; format: cell-based, human; conditions: 800 μM OA treated sHLO culture media
Method: as §1

IL-8 = experiment: RT-qPCR of pro-inflammatory cytokine IL-8 in HLO; format: cell-based, human; conditions: 200 μM or 800 μM OA, normalized by 18S
Method: as §3

liver organoids = experiment: ROS live-cell imaging of liver organoids; format: cell-based, human
Excerpt: as §2

With `CC1=C(/C=C/C(C)=C/C=C/C(C)=C/C(=O)O)C(C)(C)CCC1` [RA, retinoic acid] the albumin secretion [1] was 3.0 to 6.5 µg/mL, the “number of organoids, increase compared to untreated” value ([2]; day 20) was 1.8 fold and the “organoid size, increase after treatment” value ([2]; day 20) was 1.5 fold. For the same compound, the “organoids with internal luminal structure” value ([2]; day 25) was 95%.
`CCCCCCCCCCCCCCCCCC(=O)O` [SA, stearic acid] was tested, and the “effectiveness in inducing lipid accumulation among FFAs (OA, LA, PA, SA)” value [3] was “least effective”.
For `CCCCCCCC/C=C\CCCCCCCC(=O)O` [OA, oleic acid], the “lipid accumulation, increase in sHLO” value ([3]; 0, 200, 400, 800 μM OA, 3 days, dose dependent) was “up to 18 fold”, the “hepatocyte ballooning (enlargement)” value ([3]; 800 μM OA treated sHLO, live imaging of cellular membrane) was “confirmed” and the “effectiveness in inducing lipid accumulation among FFAs (OA, LA, PA, SA)” value [3] was “most effective”. For the same compound, the “size of lipid droplets” value ([3]; OA treated sHLO, 3 days) was “enlarged”, the “trichrome positive HLO” value ([4]; cHLO (OA 5 days)) was “significantly increased” and the “trichrome positive HLO” value ([4]; sHLO (OA 3 days)) was “not observed”. For the same compound, the “P3NP secretion compared with the untreated” value (P3NP) was 2.8 fold, the “Young's modulus, Emedian” value ([5]; 200 μM OA) was 1.6 kPa and the “Young's modulus, Emedian” value ([5]; 400 μM OA) was 2.4 kPa. For the same compound, the “Young's modulus, Emedian” value ([5]; 800 μM OA) was 2.8 kPa, the “difference between 90th percentile and 10th percentile (ΔP90-10) of Young's modulus” value ([5]; 800 μM OA) was 7.0 kPa and the “THP-1 migration cells, increase” value (THP-1) was “up to 2 fold”. For the same compound, the triglycerides [6] was “detected”, the “TNF-alpha gene expression increase” value (TNF-alpha) was 2 fold and the “IL-6 secretion compared to the untreated” value (IL-6) was 2.2 fold. The “IL-8 gene expression increase” value (IL-8) was 10 fold.
With `Oc1ccc(C=Cc2cc(O)cc(O)c2)cc1` [resveratrol] the “effect on ROS production of liver organoids” value (liver organoids) was “No effectiveness”.
